The values below come from patent US7671054B1, “Reverse-turn mimetics and method relating thereto” (Choongwae Pharma Corporation, priority 2001, dated 2010).

The assay relates to TCF4/β-catenin transcription (TOPFlash) in SW480 cells. In words: Reporter gene assay (TOPFlash luciferase). It counts as cell-based. As to conditions: Homo sapiens, SW480, Table 4; Reporter gene assay as described in Example 6; read-out: IC50. The method, boiled down:
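SW480 cells transiently co-transfected with TOPFlash and pRL-null (4:1 µg) using Superfect, then reseeded at 3×10^4 cells/well and incubated overnight at 37 °C. Compound treatment lasted 24 h before luciferase read-out.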
Consider `CN1CC(=O)N2[C@@H](Cc3ccc(O)cc3)C(=O)N(Cc3cccc(N4CCOCC4)c3)C[C@@H]2N1C(=O)NCc1ccccc1` [Compound 117], for which the IC50 is 6.9 ± 0.6 µM.
Under `C=CCN1CC(=O)N2[C@@H](Cc3ccc(O)cc3)C(=O)N(Cc3cccc4scnc34)C[C@@H]2N1C(=O)NCc1ccc(Cl)c(Cl)c1` [Compound 210] stands 0.9 ± 0.1 µM.
Take `CCCN(C)c1cccc(CN2C[C@H]3N(C(=O)CN(C)N3C(=O)NCc3ccccc3)[C@@H](Cc3ccc(O)cc3)C2=O)c1` [Compound 55]: the IC50 turned out to be 7.2 ± 1.4 µM.
Under `CN1CC(=O)N2[C@@H](Cc3ccc(O)cc3)C(=O)N(Cc3cccc4c3cnn4CCN3CCOCC3)C[C@@H]2N1C(=O)NCc1ccccc1` [Compound 98] stands 14.4 ± 2.2 µM.
As for `C=CCN1CCN2[C@@H](Cc3ccc(O)cc3)C(=O)N(Cc3ccc(OC)cc3OC)C[C@@H]2N1C(=O)NCc1ccccc1` [Compound 213], the figure is 1.7 ± 0.3 µM; as for `CCN(CC)c1cc(F)ccc1[C@H](C)N1C[C@H]2N(C(=O)CN(C)N2C(=O)NCc2ccccc2)[C@@H](Cc2ccc(O)cc2)C1=O` [Compound 64], 25.3 ± 6.6 µM; as for `C=CCN1CC(=O)N2[C@@H](Cc3ccc(O)cc3)C(=O)N(Cc3cccc4c3OCCO4)C[C@@H]2N1C(=O)NCc1ccc(Cl)c(Cl)c1` [Compound 204], 1.9 ± 0.1 µM.
As to `CN1CC(=O)N2[C@@H](Cc3ccc(O)cc3)C(=O)N(Cc3cccc4nn(CCN5CCOCC5)cc34)C[C@@H]2N1C(=O)NCc1ccccc1` [Compound 100], the IC50 was 2.7 ± 0.3 µM.
As for `CCCN1CC(=O)N2[C@@H](Cc3ccc(O)cc3)C(=O)N(Cc3ccc(Cl)c4cccnc34)C[C@@H]2N1C(=O)NCc1ccccc1` [Compound 148], the figure is 2.6 ± 0.3 µM; as for `CN1CC(=O)N2[C@@H](Cc3ccc(O)cc3)C(=O)N(Cc3cccc(N4CCCCC4)c3)C[C@@H]2N1C(=O)NCc1ccccc1` [Compound 71], 6.5 ± 0.7 µM.
For `CCCN1CC(=O)N2[C@@H](Cc3ccc(O)cc3)C(=O)N(Cc3cc(N(C)C(C)C)cc(C(F)(F)F)c3)C[C@@H]2N1C(=O)NCc1ccccc1` [Compound 155], the 50% inhibitory concentration (IC50) was found to be 30.5 ± 4.1 µM.
Regarding `C=CCN1CC(=O)N2[C@@H](Cc3ccc(O)cc3)C(=O)N(Cc3ccc(C)c(N4CCOCC4)c3)C[C@@H]2N1C(=O)NCc1ccccc1` [Compound 133], the concentration for half-maximal inhibition (IC50) is 3.5 ± 0.7 µM.
Under `C=CCN1CC(=O)N2C(Cc3ccc(O)cc3)C(=O)N(Cc3ccc(F)cc3F)CC2N1C(=O)NCc1ccccc1` (centres unmarked) [Compound 170] stands 1.5 ± 0.5 µM.
Regarding `C=CCN1CC(=O)N2C(CN(Cc3cccc(N(C)C)c3)C(=O)[C@@H]2Cc2ccc(O)cc2)N1C(=O)NCc1ccccc1` (single isomer, unassigned) [Compound 192], the concentration for half-maximal inhibition (IC50) stood at 1.3 ± 0.3 µM.
Under `C=CCN1CC(=O)N2[C@@H](Cc3ccc(O)cc3)C(=O)N(Cc3ccc4c(c3)OCCO4)C[C@@H]2N1C(=O)NCc1ccccc1` [Compound 187] stands 1.1 ± 0.2 µM; under `CN1CC(=O)N2[C@@H](Cc3ccc(O)cc3)C(=O)N(Cc3ccc(F)cc3F)[C@@H](CO)[C@@H]2N1C(=O)NCc1ccccc1` [Compound 82], 68.1 ± 8.9 µM.
Under `C=CCN1CC(=O)N2[C@@H](Cc3ccc(O)cc3)C(=O)N(Cc3cccc(N(C)C(=O)CCCCC)c3)C[C@@H]2N1C(=O)NCc1ccccc1` [Compound 194] stands 3.2 ± 0.4 µM; under `CN(Cc1ccccc1N)c1cccc(CN2C[C@H]3N(C(=O)CN(C)N3C(=O)NCc3ccccc3)[C@@H](Cc3ccc(O)cc3)C2=O)c1` [Compound 90], 3.9 µM; under `C=C(C)CN1CC(=O)N2[C@@H](Cc3ccc(O)cc3)C(=O)N(Cc3ccc(Cl)c4cccnc34)C[C@@H]2N1C(=O)NCc1ccccc1` [Compound 149], 31 ± 6.4 µM.
Under `C[C@H](c1cccc(N(C)C)c1)N1C[C@H]2N(C(=O)CN(C)N2C(=O)NCc2ccccc2)[C@@H](Cc2ccc(O)cc2)C1=O` [Compound 61] stands 25.8 µM; under `C=CCN1CC(=O)N2[C@@H](Cc3ccc(O)cc3)C(=O)N(Cc3ccc4[nH]nnc4c3)C[C@@H]2N1C(=O)NCc1ccccc1` [Compound 136], 28 ± 2.9 µM.
For the molecule `C=CCN1CC(=O)N2[C@@H](Cc3ccc(O)cc3)C(=O)N(Cc3ccc4ncsc4c3)C[C@@H]2N1C(=O)NCc1ccccc1` [Compound 142], the 50% inhibitory concentration (IC50) came to 1.6 ± 0.4 µM.
Under `C=CCN1CC(=O)N2[C@@H](Cc3ccc(OP(=O)(O)O)cc3)C(=O)N(Cc3cc(F)c(F)cc3N(C)C)C[C@@H]2N1C(=O)NCc1ccccc1` [Compound 163] stands 1.7 ± 0.5 µM; under `C=CCN1CC(=O)N2[C@@H](Cc3ccc(O)cc3)C(=O)N(Cc3cccc4cccnc34)C[C@@H]2N1C(=O)NCc1ccc(Cl)c(Cl)c1` [Compound 199], 1 ± 0.2 µM.
As for `C#CCN1CC(=O)N2[C@@H](Cc3ccc(O)cc3)C(=O)N(Cc3cccc4cccnc34)C[C@@H]2N1C(=O)NCc1ccccc1` [Compound 114], the figure is 0.4 ± 0.04 µM.
For the molecule `C=CCN1CC(=O)N2[C@@H](Cc3ccc(OP(=O)(O)O)cc3)C(=O)N(Cc3ccccc3)C[C@@H]2N1C(=O)NCc1ccccc1` [Compound 174], the half-inhibitory concentration (IC50) was determined as 1 ± 0.1 µM.
As for `C#CCNC(=O)N1[C@H]2CN(Cc3cccc4ccccc34)C(=O)[C@H](Cc3ccc(O)cc3)N2C(=O)CN1C` [Compound 102], the figure is 62 ± 17 µM.
Take `CN1CC(=O)N2[C@@H](Cc3ccc(O)cc3)C(=O)N(Cc3cccc4nnn(C)c34)C[C@@H]2N1C(=O)NCc1ccccc1` [Compound 75]: the concentration for half-maximal inhibition (IC50) was determined as 50.5 ± 18.4 µM.
`CN1CC(=O)N2[C@@H](Cc3ccc(O)cc3)C(=O)N(Cc3ccc(F)c4ccccc34)C[C@@H]2N1C(=O)NCc1ccccc1` [Compound 25]: the half-maximal inhibitory concentration (IC50) worked out at 3 µM.
As for `CN1CC(=O)N2[C@@H](Cc3ccc(O)cc3)C(=O)N(Cc3ccccc3N3CCOCC3)C[C@@H]2N1C(=O)NCc1ccccc1` [Compound 97], the figure is 12.6 ± 1.2 µM.
In the case of `C#CCn1ncc2ccc(CN3C[C@H]4N(C(=O)CN(C)N4C(=O)NCc4ccccc4)[C@@H](Cc4ccc(O)cc4)C3=O)cc21` [Compound 93], the IC50 is 6.8 ± 1.3 µM.
As for `C#CCNC(=O)c1ccccc1Cn1ncc2c(CN3C[C@H]4N(C(=O)CN(C)N4C(=O)NCc4ccccc4)[C@@H](Cc4ccc(O)cc4)C3=O)cccc21` [Compound 107], the figure is 2.7 ± 0.3 µM.
Under `C[C@H]1[C@H]2N(C(=O)CN(C)N2C(=O)NCc2ccccc2)[C@@H](Cc2ccc(O)cc2)C(=O)N1Cc1ccc(Cl)c(N(C)C)c1` [Compound 80] stands 7.9 ± 2 µM; under `CN1CC(=O)N2[C@@H](Cc3ccc(O)cc3)C(=O)N(Cc3ccc4ncsc4c3)C[C@@H]2N1C(=O)NCc1ccccc1` [Compound 77], 7.2 ± 2.5 µM; under `C#CCn1cc2cccc(CN3C[C@H]4N(C(=O)CN(C)N4C(=O)NCc4ccccc4)[C@@H](Cc4ccc(O)cc4)C3=O)c2n1` [Compound 106], 2.6 ± 0.2 µM.
In the case of `C=CCN1CC(=O)N2[C@@H](Cc3ccc(O)cc3)C(=O)N(Cc3cccc4scnc34)C[C@@H]2N1C(=O)NCc1ccccc1` [Compound 182], the half-inhibitory concentration (IC50) came to 0.6 ± 0.04 µM.
Under `CN1CC(=O)N2[C@@H](Cc3ccc(O)cc3)C(=O)N(Cc3cccc4cn(Cc5cccc(N)c5)nc34)C[C@@H]2N1C(=O)NCc1ccccc1` [Compound 91] stands 2.9 ± 0.2 µM; under `CC(C)N(C)c1ccc(F)c([C@H](C)N2C[C@H]3N(C(=O)CN(C)N3C(=O)NCc3ccccc3)[C@@H](Cc3ccc(O)cc3)C2=O)c1` [Compound 65], 19 ± 7.1 µM; under `CC(C)N1CC(=O)N2[C@@H](Cc3ccc(O)cc3)C(=O)N(Cc3ccc(F)cc3F)C[C@@H]2N1C(=O)NCc1ccccc1` [Compound 176], 4 ± 0.4 µM.
As for `C=CCN1CC(=O)N2[C@@H](Cc3ccc(O)cc3)C(=O)N(Cc3cccc4c3N(C)CCO4)C[C@@H]2N1C(=O)NCc1ccccc1` [Compound 145], the half-maximal inhibitory concentration (IC50) stood at 0.3 ± 0.04 µM.
As for `C=CCN1CC(=O)N2[C@@H](Cc3ccc(O)cc3)C(=O)N(Cc3cccc4sc(N)nc34)C[C@@H]2N1C(=O)NCc1ccccc1` [Compound 225], the figure is 0.1 ± 0.1 µM; as for `CN1CC(=O)N2[C@@H](Cc3ccc(OCC(=O)O)cc3)C(=O)N(Cc3cccc4ccccc34)C[C@@H]2N1C(=O)NCc1ccccc1` [Compound 52], 25 µM.
As for `CC(C)N(C)c1cccc([C@H](C)N2C[C@H]3N(C(=O)CN(C)N3C(=O)NCc3ccccc3)[C@@H](Cc3ccc(O)cc3)C2=O)c1` [Compound 66], the figure is 11.8 µM; as for `C=CCN1CC(=O)N2[C@@H](Cc3ccc(O)cc3)C(=O)N(Cc3ccc4c(c3)OCCN4C)C[C@@H]2N1C(=O)NCc1ccccc1` [Compound 147], 9.4 ± 1 µM.
Under `C[C@H](c1ccccc1)N1CC2N(C(=O)CN(C)N2C(=O)NCc2ccccc2)[C@@H](Cc2ccc(O)cc2)C1=O` (some centres unmarked) [Compound 20] stands 5.1 µM.
On to `C=CCN1CC(=O)N2[C@@H](Cc3ccc(OP(=O)(O)O)cc3)C(=O)N(Cc3ccc4c(c3)OCCO4)C[C@@H]2N1C(=O)NCc1ccccc1` [Compound 212], for which the IC50 was 1.3 ± 0.3 µM.
Under `COc1ccc(CN2CC3N(C(=O)CN(C)N3C(=O)NCc3ccccc3)[C@@H](Cc3ccc(O)cc3)C2=O)cc1` (some centres unmarked) [Compound 22] stands 10.4 µM; under `C=CCN1CC(=O)N2[C@@H](Cc3ccc(O)cc3)C(=O)N(Cc3cccc4sc(N5CCCCC5)nc34)C[C@@H]2N1C(=O)NCc1ccccc1` [Compound 218], 1.6 ± 1.2 µM.
Under `CN1CC(=O)N2[C@@H](Cc3ccc(O)cc3)C(=O)N(Cc3cccc4c3nnn4C)C[C@@H]2N1C(=O)NCc1ccccc1` [Compound 76] stands 10.7 ± 2.5 µM; under `CN1CC(=O)N2[C@@H](Cc3ccc(O)cc3)C(=O)N(Cc3ccc(F)cc3C(F)(F)F)C[C@@H]2N1C(=O)NCc1ccccc1` [Compound 44], 1.3 µM; under `CC(c1ccc(F)cc1)N1C[C@H]2N(C(=O)CN(C)N2C(=O)NCc2ccccc2)[C@@H](Cc2ccc(O)cc2)C1=O` (some centres unmarked) [Compound 37], 2.3 µM.
Under `C#CCN1CC(=O)N2[C@@H](Cc3ccc(O)cc3)C(=O)N(Cc3ccc4c(c3)OCCN4C)C[C@@H]2N1C(=O)NCc1ccccc1` [Compound 146] stands 16.7 ± 1.4 µM; under `C=CCN1CCN2[C@@H](Cc3ccc(O)cc3)C(=O)N(Cc3ccc(OC(F)(F)F)cc3)C[C@@H]2N1C(=O)NCc1ccccc1` [Compound 211], 2.3 ± 0.2 µM.
